US20020172670A1 (priority 2000, published 2002)

What was measured:
dGMII [1] = molecular target: T1, dGMII (Drosophila melanogaster, UniProt Q24451); assay: binding affinity of inhibitors for dGMII; conditions: relative to DMNJ; data not shown
T1 sequence (Q24451 1-1108): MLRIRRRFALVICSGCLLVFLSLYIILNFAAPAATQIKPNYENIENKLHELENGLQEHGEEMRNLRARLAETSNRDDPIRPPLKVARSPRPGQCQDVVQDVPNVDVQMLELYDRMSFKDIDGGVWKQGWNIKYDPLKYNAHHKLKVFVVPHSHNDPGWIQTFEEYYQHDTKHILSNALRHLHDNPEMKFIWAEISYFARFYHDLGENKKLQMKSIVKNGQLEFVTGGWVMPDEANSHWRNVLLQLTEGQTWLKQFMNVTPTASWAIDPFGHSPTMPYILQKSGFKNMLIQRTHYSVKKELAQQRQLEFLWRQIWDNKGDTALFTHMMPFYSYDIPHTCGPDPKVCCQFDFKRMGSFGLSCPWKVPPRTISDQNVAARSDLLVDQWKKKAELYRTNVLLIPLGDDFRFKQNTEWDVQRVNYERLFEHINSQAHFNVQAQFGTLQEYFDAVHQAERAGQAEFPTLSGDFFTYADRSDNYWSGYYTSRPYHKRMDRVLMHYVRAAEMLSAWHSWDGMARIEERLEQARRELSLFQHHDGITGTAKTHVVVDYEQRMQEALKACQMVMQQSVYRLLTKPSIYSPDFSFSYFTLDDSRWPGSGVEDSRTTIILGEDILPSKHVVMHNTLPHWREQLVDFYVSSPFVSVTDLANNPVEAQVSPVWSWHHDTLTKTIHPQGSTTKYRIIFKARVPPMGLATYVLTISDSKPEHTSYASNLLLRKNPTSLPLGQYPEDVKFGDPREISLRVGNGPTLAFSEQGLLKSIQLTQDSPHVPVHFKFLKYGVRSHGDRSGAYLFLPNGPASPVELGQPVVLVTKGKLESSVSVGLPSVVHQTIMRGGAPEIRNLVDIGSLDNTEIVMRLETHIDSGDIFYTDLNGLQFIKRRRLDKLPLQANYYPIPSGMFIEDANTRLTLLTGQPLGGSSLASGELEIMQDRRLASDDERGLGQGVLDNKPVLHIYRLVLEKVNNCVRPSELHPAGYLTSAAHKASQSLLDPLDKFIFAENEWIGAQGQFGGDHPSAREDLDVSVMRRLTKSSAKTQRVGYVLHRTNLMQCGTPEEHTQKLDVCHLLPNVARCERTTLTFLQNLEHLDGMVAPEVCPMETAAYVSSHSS

dGMII [2] = molecular target: T2, dGMII (Drosophila melanogaster, UniProt Q24451); conditions: cited from earlier work
T2 construct: The resulting constructs consist of the dGMII catalytic region with a short length of the stalk region; Bip secretion signal (N); made in house; host or cells: Drosophila Schneider S2 cells, stably transfected, protein secreted into the medium
T2 sequence (Q24451 76-1108): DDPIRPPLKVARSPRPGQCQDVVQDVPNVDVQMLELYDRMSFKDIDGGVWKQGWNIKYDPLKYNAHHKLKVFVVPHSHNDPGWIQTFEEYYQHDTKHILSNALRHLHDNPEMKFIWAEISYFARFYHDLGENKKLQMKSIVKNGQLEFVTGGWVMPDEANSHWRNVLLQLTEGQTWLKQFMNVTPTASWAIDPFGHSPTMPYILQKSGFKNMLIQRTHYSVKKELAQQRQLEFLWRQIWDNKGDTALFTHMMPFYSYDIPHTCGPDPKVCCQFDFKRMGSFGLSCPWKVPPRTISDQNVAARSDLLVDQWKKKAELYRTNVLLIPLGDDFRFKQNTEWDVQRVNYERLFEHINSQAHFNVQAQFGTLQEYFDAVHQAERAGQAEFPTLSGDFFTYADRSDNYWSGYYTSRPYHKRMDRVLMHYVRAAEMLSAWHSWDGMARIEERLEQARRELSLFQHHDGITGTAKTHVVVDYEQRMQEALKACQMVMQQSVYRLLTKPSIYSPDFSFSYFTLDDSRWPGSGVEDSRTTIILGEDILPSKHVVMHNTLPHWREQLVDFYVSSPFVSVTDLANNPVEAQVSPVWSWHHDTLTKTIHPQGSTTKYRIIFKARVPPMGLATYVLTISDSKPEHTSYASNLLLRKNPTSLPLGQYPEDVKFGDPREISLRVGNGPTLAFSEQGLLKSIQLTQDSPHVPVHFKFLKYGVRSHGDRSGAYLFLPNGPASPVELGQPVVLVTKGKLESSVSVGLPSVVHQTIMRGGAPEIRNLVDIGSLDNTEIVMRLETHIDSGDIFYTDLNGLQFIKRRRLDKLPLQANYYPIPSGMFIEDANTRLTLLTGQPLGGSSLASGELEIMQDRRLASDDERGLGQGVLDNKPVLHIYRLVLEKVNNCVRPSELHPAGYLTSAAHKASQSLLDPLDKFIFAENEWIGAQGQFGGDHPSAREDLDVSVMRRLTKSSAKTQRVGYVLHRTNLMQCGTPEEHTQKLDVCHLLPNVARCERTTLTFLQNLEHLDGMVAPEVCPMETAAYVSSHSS

[3] = system: Drosophila Schneider (S2) cells; assay: viability of induced S2 cells by Trypan blue exclusion; format: cell-based; conditions: 10-20 μM cadmium, until the end of the induction period
Method: Initial experiments were carried out in S2 medium containing 10% bovine serum. Metal concentrations used to induce and time of induction were optimized for dGMII production. […] Cadmium has been reported to be detrimental to the growth of cells. However, at the concentrations used here, the cells continued to grow and maintain greater than 90% viability (as assessed by Trypan blue exclusion) until the end of the induction period. Cells were maintained in the continous presence of cadmium for up to three passages.

mouse GMII = molecular target: T3, mouse GMII (Mus musculus, UniProt P27046); conditions: Rabouille et al., 1999; cited from earlier work
T3 sequence (P27046 1-1150): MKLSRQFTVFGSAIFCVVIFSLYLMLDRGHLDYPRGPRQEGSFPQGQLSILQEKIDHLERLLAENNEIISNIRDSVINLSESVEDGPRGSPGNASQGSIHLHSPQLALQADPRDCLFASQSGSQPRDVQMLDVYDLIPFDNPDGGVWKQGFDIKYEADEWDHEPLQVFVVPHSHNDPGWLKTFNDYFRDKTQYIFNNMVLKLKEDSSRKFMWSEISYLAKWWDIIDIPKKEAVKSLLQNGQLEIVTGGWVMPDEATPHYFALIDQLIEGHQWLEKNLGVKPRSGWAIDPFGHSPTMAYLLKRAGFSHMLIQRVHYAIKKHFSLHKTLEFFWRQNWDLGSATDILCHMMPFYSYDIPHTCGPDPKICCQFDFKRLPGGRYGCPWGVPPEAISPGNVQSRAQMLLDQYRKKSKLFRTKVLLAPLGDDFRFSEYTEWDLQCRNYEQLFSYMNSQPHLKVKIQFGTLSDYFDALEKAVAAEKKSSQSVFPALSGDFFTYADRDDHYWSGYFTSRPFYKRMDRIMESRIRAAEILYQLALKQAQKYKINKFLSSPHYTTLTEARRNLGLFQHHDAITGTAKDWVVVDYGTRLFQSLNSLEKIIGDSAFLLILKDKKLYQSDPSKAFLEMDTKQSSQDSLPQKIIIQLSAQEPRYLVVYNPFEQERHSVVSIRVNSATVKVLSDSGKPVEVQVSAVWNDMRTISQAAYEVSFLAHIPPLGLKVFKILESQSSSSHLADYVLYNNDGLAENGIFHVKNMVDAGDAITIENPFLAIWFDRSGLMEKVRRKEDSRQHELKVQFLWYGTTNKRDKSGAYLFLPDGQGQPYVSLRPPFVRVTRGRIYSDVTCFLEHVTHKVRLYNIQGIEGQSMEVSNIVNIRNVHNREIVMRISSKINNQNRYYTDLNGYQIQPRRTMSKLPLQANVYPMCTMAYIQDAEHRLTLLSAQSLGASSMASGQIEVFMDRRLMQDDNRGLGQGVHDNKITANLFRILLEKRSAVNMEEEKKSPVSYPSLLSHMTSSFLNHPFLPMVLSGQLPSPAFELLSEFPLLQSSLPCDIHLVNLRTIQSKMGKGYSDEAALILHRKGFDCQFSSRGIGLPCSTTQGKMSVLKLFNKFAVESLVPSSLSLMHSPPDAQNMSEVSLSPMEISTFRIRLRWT

SMILES: O[C@H]1[C@H]2[C@H](O)CCCN2C[C@H]1O [swainsonine]
- binding affinity for the enzyme, compared to the substrate-mimic DMNJ (dGMII [1]): 10,000 times higher

SMILES: NC(CO)(CO)CO [Tris, tris(hydroxymethyl)-aminomethane, reference compound]
- inhibition of dGMII activity (dGMII [2]; Rabouille et al., 1999): inhibit

SMILES: [Cd] [Cadmium]
- cell viability (Trypan blue exclusion) [3]: greater than 90%

SMILES: [Cu+2] [copper]
- inactivation of mouse GMII (mouse GMII): effectively inactivate
- inactivation of Drosophila GMII (dGMII [2]; Rabouille et al., 1999): effectively inactivate
- IC50 (dGMII [2]; read-out: inhibition of dGMII by copper, IC50): 25 µM
